# Test results taken from ChEMBL document CHEMBL4342406, “Revealing quinquennial anticancer journey of morpholine: A SAR based review” (Eur J Med Chem, 2019).
# Columns and labels:
# [1] = target: Epidermal growth factor receptor (Homo sapiens, UniProt P00533, T790M); experiment: Inhibition of EGFR T790M mutant (unknown origin) incubated for 60 mins by ADP-Glo kinase assay
# [2] = tested on: HT-29; experiment: Cytotoxicity against human HT-29 cells assessed as reduction in cell viability after 72 hrs by MTT assay; assay type: functional, cell-based; conditions: HT-29, 72 h
# [3] = tested on: A549; experiment: Cytotoxicity against human A549 cells assessed as reduction in cell viability after 72 hrs by MTT assay; assay type: functional, cell-based; conditions: A549, 72 h
# [4] = tested on: Lymphocyte; experiment: Cytotoxicity against human lymphocytes assessed as reduction in cell viability after 72 hrs by MTT assay; assay type: cell-based
# [5] = tested on: BEL-7404 tumor cell line; experiment: Antiproliferative activity in human Bel7404 cells by MTT assay; assay type: functional, cell-based
# [6] = tested on: A549; experiment: Antiproliferative activity in human A549 cells by MTT assay; assay type: functional, cell-based
# [7] = tested on: MCF7; experiment: Antiproliferative activity in human MCF7 cells by MTT assay; assay type: functional, cell-based
# [8] = tested on: QGY-7703; experiment: Antiproliferative activity in human QGY7703 cells after 72 hrs by MTS assay; assay type: functional, cell-based; conditions: QGY-7703, 72 h
# [9] = tested on: Bel-7402; experiment: Antiproliferative activity in human Bel7402 cells after 72 hrs by MTS assay; assay type: functional, cell-based; conditions: Bel-7402, 72 h
# [10] = tested on: SMMC-7721; experiment: Antiproliferative activity in human SMMC7721 cells after 72 hrs by MTS assay; assay type: functional, cell-based; conditions: SMMC-7721, 72 h
# [11] = tested on: MCF7; experiment: Cytotoxicity against human MCF7 cells assessed as reduction in cell viability incubated for 3 days by MTT assay; assay type: functional, cell-based; conditions: MCF7, 72 h
# Sequence of Epidermal growth factor receptor (P00533 25-1210 T790M limits assumed): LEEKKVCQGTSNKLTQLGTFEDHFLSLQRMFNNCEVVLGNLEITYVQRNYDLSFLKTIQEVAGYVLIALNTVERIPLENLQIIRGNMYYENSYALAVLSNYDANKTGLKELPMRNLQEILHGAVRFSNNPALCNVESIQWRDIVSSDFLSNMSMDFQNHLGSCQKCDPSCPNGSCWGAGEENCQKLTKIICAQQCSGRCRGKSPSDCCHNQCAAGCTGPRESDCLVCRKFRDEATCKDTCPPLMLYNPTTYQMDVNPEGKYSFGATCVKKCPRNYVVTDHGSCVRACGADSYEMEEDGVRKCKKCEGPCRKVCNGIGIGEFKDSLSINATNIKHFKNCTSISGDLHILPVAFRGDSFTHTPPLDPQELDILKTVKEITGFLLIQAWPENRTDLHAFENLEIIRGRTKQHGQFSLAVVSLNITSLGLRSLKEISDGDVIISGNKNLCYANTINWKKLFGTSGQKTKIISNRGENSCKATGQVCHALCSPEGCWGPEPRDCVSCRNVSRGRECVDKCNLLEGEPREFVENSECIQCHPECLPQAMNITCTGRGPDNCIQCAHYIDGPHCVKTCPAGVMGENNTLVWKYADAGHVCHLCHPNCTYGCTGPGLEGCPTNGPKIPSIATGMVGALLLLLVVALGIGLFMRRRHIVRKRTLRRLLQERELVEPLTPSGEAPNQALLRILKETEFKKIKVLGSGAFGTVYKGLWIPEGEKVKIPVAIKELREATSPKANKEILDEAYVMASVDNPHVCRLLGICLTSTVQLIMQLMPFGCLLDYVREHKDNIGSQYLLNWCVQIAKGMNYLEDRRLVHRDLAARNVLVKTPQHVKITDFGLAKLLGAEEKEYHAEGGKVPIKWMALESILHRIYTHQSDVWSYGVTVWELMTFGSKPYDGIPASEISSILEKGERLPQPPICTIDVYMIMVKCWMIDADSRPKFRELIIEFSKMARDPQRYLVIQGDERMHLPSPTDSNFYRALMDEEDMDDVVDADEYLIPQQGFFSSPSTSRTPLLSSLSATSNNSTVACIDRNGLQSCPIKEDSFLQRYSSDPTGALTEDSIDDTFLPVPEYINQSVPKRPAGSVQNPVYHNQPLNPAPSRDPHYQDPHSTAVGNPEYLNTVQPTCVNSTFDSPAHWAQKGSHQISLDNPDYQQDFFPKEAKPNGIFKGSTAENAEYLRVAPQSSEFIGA
smiles,measurement,setting,value
C=CC(=O)Nc1cccc(Nc2ncnc3cc(OC)c(OCCN4CCOCC4)cc23)c1,IC50,[1],0.0043 µM
COc1ccc(Cn2cnc3c(cc(N4CCOCC4)c4ccccc43)c2=O)cc1,IC50,[2],4.12 µM
same,IC50,[3],134 µM
same,IC50,[4],175 µM
CCCCCCCCCC[C@H](O)COCCOC[C@@H](O)CCCCCCCCCCCCCCN1CCOCC1,IC50,[5],25.8 µM
same,IC50,[6],11.7 µM
same,IC50,[7],13 µM
O=c1ccc(-c2cc(C(F)(F)F)c(N3CCOCC3)nn2)n[nH]1,IC50,[8],0.178 µM
same,IC50,[9],0.285 µM
same,IC50,[10],0.123 µM
COc1c2ccoc2c(S(=O)(=O)N2CCOCC2)c2oc(C)c(C(C)=O)c(=O)c12,IC50,[11],0.125 µM
